Source: patent US5814512A, “Microorganism having all the identifying characteristics of absida ferm BP-4599 for producing purpurogallin derivatives” (Hoffmann-La Roche Inc., priority 1994, dated 1998)
pIC50: −log10 of the molar value.

Assays:
[1] = target: T1, catecholamine-O-methyltransferase (COMT), human liver enzyme (Homo sapiens, UniProt P21964); assay: COMT inhibitory activity (O-methylation of 1,2-dihydroxybenzene with S-adenosyl-L-[methyl-3H]methionine, crude human liver enzyme); assay type: biochemical; settings: COMT inhibition; crude enzyme from human liver (8.3 μg protein); pH 8.0; 37° C., 30 minutes; 100 μM 1,2-dihydroxybenzene
T1 construct: prepared from human liver; from tissue; host or cells: human liver, crude enzyme
T1 sequence (P21964 1-221 isoform P21964-2): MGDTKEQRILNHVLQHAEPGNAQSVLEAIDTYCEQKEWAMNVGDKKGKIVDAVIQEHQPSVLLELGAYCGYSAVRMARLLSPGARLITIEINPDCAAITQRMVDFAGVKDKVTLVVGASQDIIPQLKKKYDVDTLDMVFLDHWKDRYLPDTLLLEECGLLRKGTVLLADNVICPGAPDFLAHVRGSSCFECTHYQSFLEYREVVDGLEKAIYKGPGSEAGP
Experimental: The assay mixture (120 μl) in a mini scintillation vial contained 68 mM K-PO4 buffer (pH 8.0), 10 mM MgCl2, 2.2 mM dithiothreitol, 7.8 U/ml adenosine deaminase, 5 mM EGTA, 100 μM 1,2-dihydroxybenzene, 183 μM S-adenosyl-L-[methyl-^3 H] […] Ci/mol, Amersham) and human liver enzyme. In the standard assay, 5 μl of inhibitor was added to the incubation mixture and the reaction was started with the supplementation of crude enzyme (8.3 μg protein) prepared from human liver. After incubation at 37° C. for 30 minutes, the reaction was stopped by immersion of the vials in ice water. 100 μl of 1M guaiacol HCl was added and the samples were extracted with 2 ml of a scintillation cocktail of hexane/toluene (4:1). The radioactivity of O^3 H-methylated products were measured by a liquid scintillation counter (LSC1100, Aloka).

Solubility = assay type: physicochemical
Acute toxicity = settings: in vivo

Structure (SMILES)	pIC50 [1]	Solubility (Solubility; in Dimethylsulfoxide (DMSO))	Solubility (Solubility; in H2 O)	Solubility (Solubility; in Methanol)	Acute toxicity (Acute toxicity)
O=c1cccccc1O [Tropolone]	3.02				
COc1c(O)cc2cc(C(=O)O)cc(O)c(=O)c2c1O [8-O-methylpurpurogallincarboxylic acid]	5.65	Soluble	Slightly soluble	Soluble	not observed
CCCOC(=O)c1cc(O)c(O)c(O)c1 [Propyl gallate]	6.34				
